Reference: publication PMC9814544 (Communications Chemistry, 2020)
Where “and” joins values, the source holds several entries; their conditions need not be identical. Equal entries are not always repeated. Entries after “also recorded” stand apart in the source; their conditions may differ. Where two headings read alike, the source gives them in different places.

Assays:
[1] = target: T1, LOX129 (LOX-1 129-273) (Homo sapiens, UniProt P78380); experiment: Surface plasmon resonance, immobilized LOX129; format: binding
T1 construct: 6His-tag with thrombin cleavage site (N, cleaved yes); made in house; host or cells: E. coli SHuffle cells (New England BioLabs), pET28a
Description: To enable surface plasmon resonance spectroscopy (SPR), LOX129 was immobilized on a SPR chip by amine coupling and compounds were analyzed for binding. Based on the individual sensorgrams the compounds were classified as non-binders, over-stoichiometric binders or dose-dependent binders. In total four different structural classes could be confirmed as dose-dependent and stoichiometric binders. […] The mean binding ratio is 0.78 (Supplementary Table 3). Assuming a high percentage of active, binding competent protein on the chip surface, this ratio represents less than one BI-0115 molecule per LOX-1 monomer.
Binding studies were performed using a Biacore T200 instrument (GE Healthcare) at 25 °C in 20 mM HEPES pH 6.8, 150 mM NaCl, 0.05% Tween 20, and 1% DMSO at a flow rate of 30 μL/min. The interaction analyses were performed in the multi-cycle kinetic mode using 120 s association time and 600 s dissociation time at the following LOX-1 inhibitor concentrations 0.391, 0.78, 1.56, 3.125, 6.25, 12.5 and 25 µM. Data were analyzed using the Biacore T200 Evaluation Software 2.0. Due to a transient binding, the KD was determined from a plot of steady state response levels against analyte concentration (affinity plot). The mean KD value was determined from four individual experiments (Supplementary Table 3). The binding ratio is the average number of compound molecules bound per LOX-1 protein on the surface.

[2] = Metabolic stability in mouse liver microsomes; format: in vitro ADME; conditions: in vitro clearance as % hepatic blood flow, n = 1
Description: The metabolic degradation of the test compound is assayed at 37 °C with microsomes. The final incubation volume of 100 µl per time point contains TRIS buffer pH 7.6 at RT (0.1 M), magnesium chloride (5 mM), microsomal protein (1 mg/ml or 0.5 mg/ml depending on species) and the test compound at a final concentration of 1 µM.
Following a short preincubation period at 37 °C, the reactions were initiated by addition of beta-nicotinamide adenine dinucleotide phosphate, reduced form (NADPH, 1 mM) and terminated by transfering an aliquot into solvent after different time points. The quenched incubations are pelleted by centrifugation (10000 g, 5 min). An aliquot of the supernatant is assayed by LC-MS/MS for the amount of parent compound. The slope of the semi logarithmic plot of the concentration-time profile determines the half-life. The clearance is calculated by upscaling considering the amount of protein in the incubation, microsomal recovery and liver weight and normalized to the hepatic blood flow of the respective species. The number of experiments for BI-0115 is n = 1.

[3] = PAMPA passive permeability; format: in vitro ADME
Source text: The PAMPA assay provides data on the passive permeability of test compounds through immobilized artificial phospholipid membranes. The method used was extensively described previously. The number of experiments for BI-0115 is n = 1.

[4] = test system: panel of GPCRs, drug transporters, ion channels, nuclear receptors, kinases, and other non-kinase enzymes; experiment: Eurofins CEREP off-target panel; conditions: at 10 µM; measured once
Description: To assess potential off-target liabilities, BI-0115 was tested on a panel of assays across various key pharmacological target classes (GPCRs, drug transporters, ion channels, nuclear receptors, kinases, and other non-kinase enzymes; Eurofins CEREP, France). […] Although the compound solubility is low, it was sufficient to get a saturable dose response in the cellular assay and the various biophysical assays. Permeability, as measured with the PAMPA assay is good.

Structure (SMILES): CCCN1C(=O)c2ccc(Cl)cc2Nc2ncccc21 [BI-0115]
- SPR binding kinetics ([1]; in words): fast binding kinetics
- SPR binding ratio ([1]; mean of n = 4, compound molecules bound per LOX-1 protein on the surface): 0.78
- Kd ([1]; mean of n = 4, steady-state fit, 25 °C, read-out: SPR Kd): 4.32 µM and 4.3 µM
- SPR binding ratio, individual measurements ([1]; measurements 1-4, Supplementary Table 3): 0.79 and 0.84 and 0.73 and 0.77
- Kd ([1]; measurements 1-4, Supplementary Table 3, read-out: SPR KD, individual measurements): 3.8 µM and 4.6 µM and 4.12 µM and 4.76 µM
- micr. Stab mLM [2]: 95 %QH
- Papp ([3]; PAMPA, n = 1): 1.5 ×10⁻⁶ cm/s
- Permeability, PAMPA assay ([3]; in words): good
- CEREP profile [4]: very clean profile; also recorded: clean
